Results taken from ChEMBL document CHEMBL5120877, “Silybins are stereospecific regulators of the 20S proteasome” (Bioorg Med Chem, 2022).
Active and inactive are the calls of the source.

Key:
Conditions in all cases: filed as activator, time 90.0 min
Saccharomyces cerevisiae [1] = assay: Activation of chymotrypsin-like activity of yeast 20s proteasome using suc-LLVY-AMC as flurogenic substrate preincubated for 30 mins followed by substrate addition and measured after 1 hr by fluorescence assay
Saccharomyces cerevisiae [2] = assay: Activation of trypsin-like activity of yeast 20s proteasome using […] as flurogenic substrate preincubated for 30 mins followed by substrate addition and measured after 1 hr by fluorescence assay
Saccharomyces cerevisiae [3] = assay: Activation of PGPHL-peptidase activity of yeast 20s proteasome using […] as flurogenic substrate preincubated for 30 mins followed by substrate addition and measured after 1 hr by fluorescence assay

Measured: Activity

COc1cc([C@H]2Oc3cc([C@H]4Oc5cc(O)cc(O)c5C(=O)[C@@H]4O)ccc3O[C@@H]2CO)ccc1O
active: Saccharomyces cerevisiae [1] | Saccharomyces cerevisiae [2] | Saccharomyces cerevisiae [3]

COc1cc([C@@H]2Oc3cc([C@H]4Oc5cc(O)cc(O)c5C(=O)[C@@H]4O)ccc3O[C@H]2CO)ccc1O
active: Saccharomyces cerevisiae [1] | Saccharomyces cerevisiae [2] | Saccharomyces cerevisiae [3]
